Assay results as given in the CheMixHub viscosity set.

Experiment: xn = mol fraction of the nth substance listed

COCCOCCO + CCOC(C)(C)C
viscosity [mPa·s], 101 kPa
Settings | 293.15 K | 298.15 K | 303.15 K
x2 = 0.0501 | 3.519 | 3.231 | 2.865
x2 = 0.1 | 3.158 | 2.906 | 2.589
x2 = 0.1459 | 2.847 | 2.627 | 2.351
x2 = 0.1998 | 2.518 | 2.328 | 2.097
x2 = 0.2556 | 2.218 | 2.06 | 1.862
x2 = 0.3031 | 1.991 | 1.855 | 1.683
x2 = 0.3521 | 1.784 | 1.669 | 1.52
x2 = 0.4004 | 1.605 | 1.506 | 1.377
x2 = 0.4511 | 1.438 | 1.355 | 1.244
x2 = 0.4998 | 1.299 | 1.227 | 1.13
x2 = 0.5628 | 1.142 | 1.082 | 1.001
x2 = 0.5997 | 1.062 | 1.007 | 0.934
x2 = 0.6621 | 0.942 | 0.894 | 0.833
x2 = 0.6997 | 0.879 | 0.834 | 0.779
x2 = 0.7411 | 0.816 | 0.773 | 0.725
x2 = 0.7995 | 0.736 | 0.697 | 0.657
x2 = 0.8401 | 0.687 | 0.651 | 0.616
x2 = 0.8998 | 0.623 | 0.591 | 0.56
x2 = 0.9498 | 0.575 | 0.545 | 0.518

CCC#N + CCOC(C)=O
303.15 K, 101.33 kPa
Settings | viscosity [mPa·s]
x1 = 0.1019 | 0.4034
x1 = 0.1916 | 0.4041
x1 = 0.2921 | 0.4038
x1 = 0.3979 | 0.4025
x1 = 0.4953 | 0.4012
x1 = 0.5954 | 0.3976
x1 = 0.6959 | 0.3954
x1 = 0.7981 | 0.3935
x1 = 0.9006 | 0.3915

CCCCCCCCCCO + CCOC(C)=O
viscosity [mPa·s], 101.33 kPa
Settings | x2 = 0.1664 | x2 = 0.3099 | x2 = 0.4348 | x2 = 0.545 | x2 = 0.6423 | x2 = 0.7293 | x2 = 0.8073 | x2 = 0.8778 | x2 = 0.9418
298.15 K | 6.2 | 3.758 | 2.442 | 1.698 | 1.238 | 0.936 | 0.809 | 0.657 | 0.521
303.15 K | 5.263 | 3.279 | 2.171 | 1.533 | 1.235 | 0.864 | 0.719 | 0.613 | 0.497
308.15 K | 4.52 | 2.876 | 1.935 | 1.384 | 1.032 | 0.796 | 0.647 | 0.583 | 0.477

Cc1ccccc1C + CCOC(C)=O
Settings | viscosity [mPa·s]
298.15 K, 101 kPa, x2 = 0.0459 | 0.74
298.15 K, 101 kPa, x2 = 0.1515 | 0.698
298.15 K, 101 kPa, x2 = 0.2504 | 0.661
298.15 K, 101 kPa, x2 = 0.349 | 0.625
298.15 K, 101 kPa, x2 = 0.4636 | 0.586
298.15 K, 101 kPa, x2 = 0.4948 | 0.576
298.15 K, 101 kPa, x2 = 0.5519 | 0.557
298.15 K, 101 kPa, x2 = 0.6488 | 0.527
298.15 K, 101 kPa, x2 = 0.7509 | 0.496
298.15 K, 101 kPa, x2 = 0.8487 | 0.468
298.15 K, 101 kPa, x2 = 0.9146 | 0.45
303.15 K, 101.32 kPa, x2 = 0.0599 | 0.679
303.15 K, 101.32 kPa, x2 = 0.1789 | 0.638
303.15 K, 101.32 kPa, x2 = 0.2918 | 0.601
303.15 K, 101.32 kPa, x2 = 0.4303 | 0.557
303.15 K, 101.32 kPa, x2 = 0.4994 | 0.535
303.15 K, 101.32 kPa, x2 = 0.5537 | 0.52
303.15 K, 101.32 kPa, x2 = 0.6001 | 0.507
303.15 K, 101.32 kPa, x2 = 0.6951 | 0.483
303.15 K, 101.32 kPa, x2 = 0.7859 | 0.457
303.15 K, 101.32 kPa, x2 = 0.873 | 0.437
303.15 K, 101.32 kPa, x2 = 0.9583 | 0.414
308.15 K, 101 kPa, x2 = 0.0459 | 0.643
308.15 K, 101 kPa, x2 = 0.1515 | 0.61
308.15 K, 101 kPa, x2 = 0.2504 | 0.579
308.15 K, 101 kPa, x2 = 0.349 | 0.551
308.15 K, 101 kPa, x2 = 0.4636 | 0.518
308.15 K, 101 kPa, x2 = 0.4948 | 0.51
308.15 K, 101 kPa, x2 = 0.5519 | 0.495
308.15 K, 101 kPa, x2 = 0.6488 | 0.47
308.15 K, 101 kPa, x2 = 0.7509 | 0.444
308.15 K, 101 kPa, x2 = 0.8487 | 0.421
308.15 K, 101 kPa, x2 = 0.9146 | 0.406
313.15 K, 101.32 kPa, x2 = 0.2056 | 0.565
313.15 K, 101.32 kPa, x2 = 0.4079 | 0.508
313.15 K, 101.32 kPa, x2 = 0.5023 | 0.483
313.15 K, 101.32 kPa, x2 = 0.5988 | 0.459
313.15 K, 101.32 kPa, x2 = 0.8018 | 0.411

OCCOCCOCCO + CCOC(C)=O
101 kPa
Settings | viscosity [mPa·s]
298.15 K, x2 = 0.1482 | 22.05
308.15 K, x2 = 0.0466 | 18.65

Cl[Si](Cl)(Cl)Cl + CCOC(C)OCC
viscosity [mPa·s], 101 kPa
Settings | 303.1 K | 313.1 K
x2 = 0.13 | 0.45 | 0.41
x2 = 0.2026 | 0.45 | 0.413
x2 = 0.3244 | 0.459 | 0.421
x2 = 0.4102 | 0.475 | 0.427
x2 = 0.4927 | 0.492 | 0.442
x2 = 0.5909 | 0.515 | 0.461
x2 = 0.6377 | 0.534 | 0.476
x2 = 0.6703 | 0.538 | 0.484
x2 = 0.71 | 0.552 | 0.49
x2 = 0.7457 | 0.541 | 0.481
x2 = 0.8082 | 0.52 | 0.467
x2 = 0.8385 | 0.492 | 0.447
x2 = 0.8813 | 0.456 | 0.41
x2 = 0.9655 | 0.416 | 0.375

c1ccc(Oc2ccccc2)cc1 + CCOCC
298.15 K, 101 kPa
Settings | viscosity [mPa·s]
x2 = 0.0704 | 3.158
x2 = 0.1318 | 2.737
x2 = 0.2193 | 2.153
x2 = 0.3297 | 1.631
x2 = 0.4245 | 1.258
x2 = 0.5102 | 0.9926
x2 = 0.6076 | 0.7614
x2 = 0.7088 | 0.5733
x2 = 0.7826 | 0.4552
x2 = 0.9092 | 0.3106

c1ccc(Oc2ccccc2)cc1 + CCOc1ccccc1
298.15 K, 101 kPa
Settings | viscosity [mPa·s]
x2 = 0.1367 | 3.264
x2 = 0.2072 | 3.003
x2 = 0.3253 | 2.63
x2 = 0.3731 | 2.455
x2 = 0.5105 | 2.096
x2 = 0.6002 | 1.862
x2 = 0.7037 | 1.632
x2 = 0.8127 | 1.451
x2 = 0.9006 | 1.309

OCCN(CCO)CCO + CN1CCCC1=O
viscosity [mPa·s], 101 kPa
Settings | x2 = 0.0728 | x2 = 0.1508 | x2 = 0.2354 | x2 = 0.3199 | x2 = 0.4141 | x2 = 0.5135 | x2 = 0.6225 | x2 = 0.7384 | x2 = 0.863
293.15 K | 572.9 | 337.4 | 162.4 | 84.29 | 43.36 | 22.93 | 11.2 | 6.152 | 3.354
303.15 K | 255.2 | 159.4 | 84.21 | 47.61 | 27.51 | 14.93 | 8.012 | 4.62 | 2.747
313.15 K | 123.8 | 77.19 | 47.61 | 28.9 | 16.82 | 10.34 | 5.907 | 3.554 | 1.892
323.15 K | 56.97 | 40.67 | 29.54 | 18.75 | 11.33 | 7.604 | 4.552 | 2.766 | 1.497

CCC#N + CN(C)C=O
303.15 K, 101.33 kPa
Settings | viscosity [mPa·s]
x1 = 0.1013 | 0.6977
x1 = 0.1952 | 0.6428
x1 = 0.3003 | 0.5983
x1 = 0.4007 | 0.5648
x1 = 0.4949 | 0.5385
x1 = 0.5976 | 0.5113
x1 = 0.6964 | 0.4839
x1 = 0.7945 | 0.4533
x1 = 0.9 | 0.4186
